Source: article PMC7824383, “Organic Solution Advanced Spray-Dried Microparticulate/Nanoparticulate Dry Powders of Lactomorphin for Respiratory Delivery: Physicochemical Characterization, In Vitro Aerosol Dispersion, and Cellular Studies” (Pharmaceutics, 2020)
Square brackets hold non-standard residues; d marks the D form. Peptide text beside a SMILES is read from it. * marks the point of attachment. X1 = OC[C@H]1O[C@@H](O[C@H]2[C@H](O)[C@@H](O)[C@H](*)O[C@@H]2CO)[C@H](O)[C@@H](O)[C@H]1O

Columns and labels:
[1] = Partition coefficient (LogP) by shake-flask, 1-octanol/water; format: physicochemical; settings: shake-flask 1-octanol/water (equal volumes, water saturated with octanol), 1 mg/mL, pH 8.5, shaken 24 h then 24 h standing, HPLC-UV 280 nm, mean ± SD, n = 3
Protocol: Lipophilicity is a critical physicochemical property that affects ADMET (absorption, distribution, metabolism, excretion, and toxicity). SFM is the most known lipophilicity measurement method, which is based on liquid-liquid extraction using the n-octanol/water system. The partition coefficient of Lactomorphin was measured at the room, and physiological temperatures via SFM using conditions similar to previously reported. The Lactomorphin powder was dispensed into two individual glass vials containing equal volumes of 1-octanol and water to achieve a 1 mg/mL concentration. The water solution in each vial was saturated with octanol before analysis. The pH was measured and fixed to 8.5 value to assure the predominant presence of the unionized form of Lactomorphin. The pH stability in both vials was regularly checked throughout the experiment. The first vial was shaken for 24 h at room temperature. The other one was shaken for 24 h while kept in an incubator at 37 °C. After 24 h, the vials shaking was stopped. […] A sample from each layer was carefully withdrawn and analyzed by the analytical HPLC to measure the concentration of Lactomorphin in each layer then calculate the Partition coefficient (P) and logP using the following equations:(4) P =[neutral solute]oct/[neutral solute]Aq (5) LogP=log10[neutral solute]oct/[neutral solute]Aq […]

[2] = Thermal degradation study of solid-state Lactomorphin; format: physicochemical; settings: n = 3
Source text: Forced degradation is a degradation of new drug substances at conditions more severe than accelerated conditions. The FDA and ICH guidance estate the requirement of stability testing data to understand how the quality of drug changes with time under various environmental conditions. Thermal, hydrolysis, oxidation, and photodegradation are commonly used stress study conditions. Knowledge of a molecule’s stability helps select proper formulation and provide adequate storage conditions and shelf life, which is essential for regulatory documentation. As the temperature is one of the most vital factors that affect the stability of a drug material more than the other conditions, in this study, we performed thermal degradation by exposing samples of solid-state Lactomorphin to dry and wet heat.
Samples preparation were done by weighing 25 mg of Lactomorphin, transfer it into a 25 mL volumetric flask, and add 25 mL of water and shake so all the quantity dissolved. Using a calibrated micropipette, transfer 0.20 mL of this 1 mg/mL Lactomorphin stock solution into around 90 (2 mL) glass vials. Freeze-dry all vials so that all vials have accurately 0.2 mg of Lactomorphin after lyophilization. A saturated salt solution of NaCl to achieve about 75% Relative Humidity (RH) and saturated salt solution of P2O5 to reach about 0.00% RH were prepared. Thirty vials contain 0.2 mg of Lactomorphin were kept inside a separate desiccator (tightly closed 20 mL glass vial with saturated NaCl). Another set of 30 vials were kept inside the desiccator (tightly closed 20 mL glass vial with saturated P2O5). All were put in oven fixed at 62 °C temperature. To achieve equal distribution of heat inside the oven for all samples used for the degradation study, they were placed in a metallic block made, especially for this study. The rest of the vials were kept in a desiccator at −80 °C to be used as comparison(control) samples.
According to the regulatory guidelines, there is no specific concentration used for the degradation study; however, 1 mg/mL concentration is recommended. This study used three concentrations by dissolving the stability samples in 0.2 mL, 0.4 mL, and 2 mL water to achieve 1000 μg/mL, 500 μg/mL, and 100 μg/mL concentration, respectively. Analysis of the stability samples was performed every time against a freshly prepared calibration curve and comparison samples (control samples that freshly prepared and injected directly without being exposed to the force degradation conditions) at the following periods: 0.00, 0.08, 0.17, 1, 2, 4, 10, 20, 45, 94 and 133 days. All experiments at each time point and different stability conditions were done in triplicate (n = 3). The HPLC system consisted of a VARIAN ProStar model 330 PDA Detector coupled with a VARIAN ProStar Solvent delivery module and VARIAN ProStar model 430 auto-sampler. The analysis was performed by a reverse phase HPLC assay, using Inspire™ 5 μm C18, 250 × 4.6 mm HPLC Column. Ultraviolet detection was done at 280, 254 and 220 nm, but the quantitation was done at 280 nm only. Mobile phase conditions were gradient according to the above program in Section 2.2.13 and at a flow rate of 1.00 mL/min.

[3] = system: Normal Human Astrocytes (NHA); test: Resazurin cell viability assay, NHA; settings: NHA cells, 48 h exposure, 0.1, 1, 10 and 1000 µg/mL, resazurin fluorescence; p > 0.05
[4] = system: hCMEC/D3 human cerebral microvascular endothelial cells; test: Resazurin cell viability assay, hCMEC/D3; settings: 48 h exposure, 0.1, 1, 10 and 1000 µg/mL, resazurin fluorescence, p > 0.05
[5] = system: RPMI 2650 human nasal epithelial cells; test: Resazurin cell viability assay, RPMI 2650; settings: RPMI2650 cells, 48 h exposure, 0.1, 1, 10 and 1000 µg/mL, resazurin fluorescence 544/590 nm; p > 0.05

Question: With `CC(C)C[C@H](NC(=O)[C@H](Cc1ccccc1)NC(=O)CNC(=O)[C@H](NC(=O)[C@@H](N)Cc1ccc(O)cc1)[C@H](C)O)C(=O)N[C@@H](CO[C@@H]1O[C@H](CO)[C@@H](O[C@@H]2O[C@H](CO)[C@H](O)[C@H](O)[C@H]2O)[C@H](O)[C@H]1O)C(N)=O` [Lactomorphin, H2N-Tyr-D-Thr- Gly-Phe-Leu-Ser-(O-β-Lactoside)-CONH2] (H-Y[dT]GFLS(X1)-NH2) as the compound, how does the “Experimental LogP at Room Temperature (25 °C)” value ([1]; 25 °C) read?
Answer: −2.40 ± 0.00

Question: And the “Experimental LogP at Physiological Temperature (37 °C)” value ([1]; 37 °C)?
Answer: −2.33 ± 0.02

Question: And the “Lactomorphin stability% (remaining%)” value ([2]; solid (lyophilised 0.2 mg), 62 °C / 75% RH, 2 hrs, reconstituted in water to 100, 500, 1000 μg/mL, HPLC-UV 280 nm vs fresh controls)?
Answer: 59%

Question: And the “Lactomorphin stability% (remaining%)” value ([2]; solid, 62 °C / 75% RH, 4 hrs, reconstituted 100, 500, 1000 μg/mL, HPLC-UV 280 nm)?
Answer: 29%

Question: And the “Lactomorphin stability% (remaining%)” value ([2]; solid, 62 °C / 75% RH, 24 h, reconstituted 100, 500, 1000 μg/mL, HPLC-UV 280 nm)?
Answer: 6%

Question: And the “Lactomorphin stability% (remaining%)” value ([2]; solid, 62 °C / RH 0.00%, 10 days, HPLC-UV 280 nm)?
Answer: around 60%

Question: What about the “Lactomorphin stability% (remaining%)” value ([2]; solid, 62 °C / RH 0.00%, day 94, HPLC-UV 280 nm) of the same compound?
Answer: ~ 10%

Question: And the “Lactomorphin stability% (remaining%)” value ([2]; solid, 62 °C / RH 0.00%, day 133, HPLC-UV 280 nm)?
Answer: ~ 10%

Question: And the “Lactomorphin stability% (remaining%)” value ([2]; solid, 62 °C / RH 0.00%, up to day 45, HPLC-UV 280 nm)?
Answer: around 60%

Question: What about the “relative cell viability% vs control” value [3] of the same compound?
Answer: no statistically significant difference

Question: What about the “relative cell viability% vs control” value [4] of the same compound?
Answer: no statistically significant difference

Question: What about the “relative cell viability% vs control” value [5] of the same compound?
Answer: no statistically significant difference
